The numbers were not newly measured in patent US20260284036A1 (priority 2023, published 2026), which cites them from elsewhere.

The conditions of this series: administered orally; significant first-pass metabolism.

Turning to `C=CCN1CC[C@]23c4c5ccc(O)c4O[C@H]2C(=O)CC[C@@]3(O)[C@H]1C5` [naloxone], the apparent bioavailability is recorded as 1-2%.
